# Key:
# [1] = Rodea-Palomares et al., 2012; cited from earlier work
# [2] = Aqueous extraction tests; details: PFOA 5.5 × 10^−4 M in water (~228 ppm), volume 1:1
# Protocol: Aqueous solutions of PFOA were prepared and combined with an organic phase of sensor molecule (9) in dichloromethane. Colour change observations at various sensor concentrations are described in Table 12.
# [3] = Preliminary binding study of urea linked host, UV-Vis; details: dichloromethane
# Excerpt: However, these colorimetric changes were weaker than that observed with the amide equivalent, likely due to the formation of an insoluble precipitate upon binding. Binding of the urea linked porphyrin host with PFOA and PFOS was also confirmed by ^19F NMR spectra (FIG. 7).
# [4] = UV-Vis host-guest titration, association constant; type: binding; details: short, medium and long chain sensor molecules with PFOA
# Protocol: Path length of the quartz cell was 1 cm. For UV-vis titrations, a stock solution of host was prepared (2.2×10^−3 M) in dichloromethane (DCM) and serially diluted to the required concentrations. Working solutions of tetrabutylammonium (TBA) anion salts or guest molecules were prepared in the same manner Host−guest titrations used solutions of guest prepared in the working concentration of host solution, according to the procedure of Thordarson, 2011.
# UV-vis spectroscopic host−guest titrations were performed in accordance with the methodologies of Thordarson, 2011. Solutions of host in dichloromethane were prepared. Solutions of guest were then prepared in the host solution. Aliquots of guest in host solution were added to host solution and sequentially analysed until a known molar equivalent of guest was added. The amount of guest added per aliquot was ascertained by a preliminary screening experiment; strong association constants required smaller molar equivalents so more information could be collected. […] The inverse is true for weaker binding interactions. Molar equivalents between 0.1-5 typically provided adequate information for modelling. The data was then used to simulate binding isotherms using www.supramolecular.org (Hibbert and Thordarson, 2016). The data was fitted to 1:1, 1:2 and 2:1 equilibria making no assumptions about the cooperativity of the binding interactions and modelled using different algorithms. These experiments mainly used the Nelder-Mead (Simplex) method.
# UV-Vis spectroscopy binding studies were used to determine the association constant for the host (9)−PFOA complex.
# A host solution of host (9) in dichloromethane was monitored using UV-Vis analysis as 0.5-10 equivalents of each PFAS was added. […] The data was processed using Bindfit isotherm simulators using both Nelder-Mead and L-BFGS-B methods (Thordarson, 2011).
# To highlight any potential binding preferences across the PFCAs from the host molecules, triplicates of host−guest addition titrations were performed using host (9) and the TBA salts of the nine different deprotonated PFCAs.
# [5] = 1H NMR titration with GenX in CDCl3; type: binding; details: host 6.85×10^−4 M in CDCl3, 20 μL aliquots of guest
# [6] = PFCA guest response screening (RGB analysis, UV-Vis)
# Protocol: A Puluz® 20 cm portable light tent with moderate and dispersed white LED lighting was used to photograph samples using an iPhone 6S plus camera on a fixed tripod. The automatic flash settings were disabled so there was no reflective interference on the sample vials. Samples that were being directly compared were photographed together to ensure lighting conditions and settings were consistent. The photographs were analysed using ImageJ software according to the procedure of Gallagher, 2014b. Multiple RGB values were chosen from areas of each sample at random to provide an “average” RGB value (Menesatti et al., 2012; Gallagher, 2014a; Phuangsaijai et al., 2021). Those RGB values were used to produce an artificial colour tile for visual comparison, or parameterized for modelling.
# To quantify a colour difference, RGB values were transformed within the CIELab colour space. The difference, expressed as ΔE, was determined by measuring the relative distance between two colours. The numeric ΔE value can be used to predict how the two colours are perceived by a standard observer; a ΔE>2 is considered the minimum value to achieve a “just noticeable difference” (JND) (Table 1), which is the smallest difference required for an untrained observer to be able to determine two colours as being different (Castillo et al., 2021).
# (§1) Experiments were performed at concentrations that could be monitored by the naked eye for practical sensing of PFAS in the field. Complexes of hosts (9), (11) and (12) were formed with the nine different perfluorocarboxylic acids (PFCAs) shown in Table 2 above and the colours of each host−PFCA complex were photographed in a lightbox and analysed using ImageJ software RGB analysis. Pixels of the solution were chosen at random to provide an RGB value. Multiple RGB values were recorded for each host−PFCA solution, and an average colour can be produced. From those values an RGB parameter was used to give a response value for modelling (Tahir et al., 2016).
# (§2) After preliminary screenings, UV-Vis spectra were collected before and after the addition of 1 molar equivalent of each PFCA for each host, and the degree of complexation was noted by shifts in the Soret bands and formation of a peak at ca. 650 nm. To eliminate dilution effects, PFCA guest solutions were prepared in the equivalent concentration of host. If there was a notable host−guest interaction for a particular PFCA, the host−guest binding was investigated with more rigorous UV-Vis experiments, binding studies, and further colour analyses. Throughout these investigations, PFOA was considered the “average” PFCA both because of its position in the range of PFCA sizes and because its prevalence is often an indication of broader PFAS contamination. In any experiment where binding was further investigated for a particular PFCA, it was typically replicated with PFOA for comparison.
# [7] = Colorimetric calibration chart, RGB response to known PFOA concentrations; details: PFOA 0.7 ppm, dichloromethane
# Protocol: The host molecules were combined with known concentrations of PFOA to provide RGB colour responses, which were used to create a colorimetric calibration chart that could be trialled as an indicator for estimating the total concentration of a range of any PFCAs. Solutions of each host molecule (1.00×10^−5 M) were prepared in dichloromethane. Solutions of PFOA in dichloromethane were prepared across a range of concentrations (0→16 ppm, 4.00×10^−5 M). Each host (2 mL) was combined with each PFOA concentration (1 mL, final concentration 0→1.33×10^−5 M) and photographed under equivalent lighting conditions. The average colour of each solution was then found using ImageJ RGB analysis, and a colour chart was produced.
# For this reason, parametrization of the RGB values can be useful for interpreting results. The RGB response parameter can be calculated using the RGB values of the “blank” host solution (Šafranko et al., 2019) and the effective intensities of the individual RGB values of a sample (Tahir et al., 2016):
# Here, H, indicates the values for the host solution, and S, indicates the response for a sample containing a PFCA, so that ΔR, ΔG, and ΔB give the colour differences. The RGB parameter is the response due to the relative difference in the RGB intensities:
# The RGB values collected for each host with a range of known concentrations of PFOA in dichloromethane were parameterized and used to determine a relationship between concentration of analyte and RGB response values. […] The relationship between RGB response values and concentrations of PFOA could now be tested for accuracy in determining the concentration of any PFCA.
# [8] = PFCA guest response across the nine PFCAs (UV-Vis, RGB, one-way ANOVA variance); details: dichloromethane
# Protocol: as §1, §2
# One-way factorial ANOVA was used to examine the dependence (or independence) of two or more factors affecting the dependent variable concurrently, in the present case the change in absorption, or the change in RGB response across the tested PFCAs, or across the different hosts. This analysis was used to determine the variance in the responses of each host across the different PFCAs. […]
structure (smiles),measurement,setting,value
"O=C(O)C(F)(F)C(F)(F)C(F)(F)C(F)(F)C(F)(F)C(F)(F)C(F)(F)F [PFOA, Perfluorooctanoic acid]",logKo/w,[1],ca. 6.44
"O=C(NC(=O)C(F)(F)C(F)(F)C(F)(F)C(F)(F)C(F)(F)C(F)(F)C(F)(F)F)Nc1ccccc1-c1c2nc(c(-c3ccccc3NC(=O)NC(=O)C(F)(F)C(F)(F)C(F)(F)C(F)(F)C(F)(F)C(F)(F)C(F)(F)F)c3ccc([nH]3)c(-c3ccccc3NC(=O)NC(=O)C(F)(F)C(F)(F)C(F)(F)C(F)(F)C(F)(F)C(F)(F)C(F)(F)F)c3nc(c(-c4ccccc4NC(=O)NC(=O)C(F)(F)C(F)(F)C(F)(F)C(F)(F)C(F)(F)C(F)(F)C(F)(F)F)c4ccc1[nH]4)C=C3)C=C2 [host (10), 5,10,15,20-tetra-(2-ureaphenyl-pentadecafluoro-octanoyl) porphyrin]",Observations,"[2]; sensor 1.1 × 10^−6 M in DCM, H:G 1:500","Some colour change,"
same,Observations,"[2]; sensor 2.2 × 10^−3 M in DCM, H:G 4:1",Strong colour change
same,Observations,"[2]; sensor 2.2 × 10^−4 M in DCM, H:G 2:5",Strong colour change
same,Observations,"[2]; sensor 2.2 × 10^−5 M in DCM, H:G 1:25",Strong colour change
same,colour change by UV-Vis spectrophotometric analysis,[3]; addition of PFOA,discernible colour change
same,colour change by UV-Vis spectrophotometric analysis,[3]; addition of PFOS,discernible colour change
"O=C(Nc1ccccc1-c1c2nc(c(-c3ccccc3NC(=O)C(F)(F)C(F)(F)C(F)(F)F)c3ccc([nH]3)c(-c3ccccc3NC(=O)C(F)(F)C(F)(F)C(F)(F)F)c3nc(c(-c4ccccc4NC(=O)C(F)(F)C(F)(F)C(F)(F)F)c4ccc1[nH]4)C=C3)C=C2)C(F)(F)C(F)(F)C(F)(F)F [host (11), α,α,α,α-5,10,15,20-tetra(2-(heptafluorobutanoylamino)phenyl) porphyrin]",K,[4],1.19e+06 M⁻¹
same,1H NMR response to addition of GenX,[5],showed shifts
same,Absorbance @ 650 nm,[6]; host + one equivalent PFBA in dichloromethane,0.113
same,Absorbance @ 650 nm,[6]; host + one equivalent PFDA in dichloromethane,0.0469
same,Absorbance @ 650 nm,[6]; host + one equivalent PFDoDA in dichloromethane,0.0519
same,Absorbance @ 650 nm,[6]; host + one equivalent PFHpA in dichloromethane,0.1009
same,Absorbance @ 650 nm,[6]; host + one equivalent PFHxA in dichloromethane,0.0967
same,Absorbance @ 650 nm,[6]; host + one equivalent PFNA in dichloromethane,0.0473
same,Absorbance @ 650 nm,[6]; host + one equivalent PFOA in dichloromethane,0.0977
same,Absorbance @ 650 nm,[6]; host + one equivalent PFPeA in dichloromethane,0.1125
same,Absorbance @ 650 nm,[6]; host + one equivalent PFUnDA in dichloromethane,0.0475
same,ΔEHost-PFCA,[6]; host vs host + PFBA,45.9
same,ΔEHost-PFCA,[6]; host vs host + PFDA,27.0
same,ΔEHost-PFCA,[6]; host vs host + PFDoDA,27.2
same,ΔEHost-PFCA,[6]; host vs host + PFHpA,43.2
same,ΔEHost-PFCA,[6]; host vs host + PFHxA,44.4
same,ΔEHost-PFCA,[6]; host vs host + PFNA,26.8
same,ΔEHost-PFCA,[6]; host vs host + PFOA,40.6
same,ΔEHost-PFCA,[6]; host vs host + PFPeA,45.8
same,ΔEHost-PFCA,[6]; host vs host + PFUnDA,30.5
same,ΔE between host and lowest PFOA concentration,[7],4
same,colorimetric response to all nine PFCAs,[8],strong colorimetric response

# Source: patent publication US20240166658A1, “PORPHYRIN DERIVATIVES AND USES THEREOF” (University of Tasmania, priority 2021, published 2024)
